Consider 16 molecules from patent publication US9018175B2 (Takeda GmbH, priority 2009, dated 2015).

SMILES strings stand for the structures. Some results are limits rather than exact numbers.

Assay [1] addresses T1, PDE4B1 (Homo sapiens, UniProt Q07343).
T1 construct: made in house; host or cells: SF21 insect cells (baculovirus; pCR-Bac vector)
Put plainly: Inhibition of PDE4B1 activity (SPA, [3H]cAMP). Format: biochemical. Particulars: recombinant PDE4B1 expressed in SF21 cells; 0.5 pM [sic] cAMP; values given as bins; read-out: PDE4B1 inhibitory values measured as −logIC50 (converted). Summed up: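 Recombinant human PDE4B1 (Sf21 cell 1000 g supernatant) in 20 mM Tris pH 7.4, 0.1 mg/ml BSA, 5 mM Mg2+, […] with [3H]cAMP tracer, enzyme giving 10-20% conversion. After 5 min preincubation at 37 °C, 15 min reaction, stopped by SPA beads with IBMX; IC50 by non-linear regression.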

Assay [2] concerns the target T2, human PDE5 (Homo sapiens, UniProt O76074).
T2 construct: from tissue; host or cells: human platelets from fresh donor blood (10,000 g supernatant of sonicated platelets)
Put plainly: Inhibition of PDE5 activity (SPA, [3H]cGMP, platelet lysate). Format: biochemical. Particulars: PDE5 from human platelet lysate; values given as bins; read-out: PDE5A inhibitory values measured as −logIC50 (converted). The method in brief:
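Human platelet lysate served as PDE5 source, with 1 μM motapizone and 10 nM PDE2 inhibitor present; […] plus [3H]cGMP tracer, pH 7.4, 5 mM Mg2+, 10-20% substrate turnover. After 5 min preincubation, 15 min at 37 °C, stopped with SPA beads and IBMX; IC50 by non-linear regression.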

T1 sequence (Q07343 whole entry): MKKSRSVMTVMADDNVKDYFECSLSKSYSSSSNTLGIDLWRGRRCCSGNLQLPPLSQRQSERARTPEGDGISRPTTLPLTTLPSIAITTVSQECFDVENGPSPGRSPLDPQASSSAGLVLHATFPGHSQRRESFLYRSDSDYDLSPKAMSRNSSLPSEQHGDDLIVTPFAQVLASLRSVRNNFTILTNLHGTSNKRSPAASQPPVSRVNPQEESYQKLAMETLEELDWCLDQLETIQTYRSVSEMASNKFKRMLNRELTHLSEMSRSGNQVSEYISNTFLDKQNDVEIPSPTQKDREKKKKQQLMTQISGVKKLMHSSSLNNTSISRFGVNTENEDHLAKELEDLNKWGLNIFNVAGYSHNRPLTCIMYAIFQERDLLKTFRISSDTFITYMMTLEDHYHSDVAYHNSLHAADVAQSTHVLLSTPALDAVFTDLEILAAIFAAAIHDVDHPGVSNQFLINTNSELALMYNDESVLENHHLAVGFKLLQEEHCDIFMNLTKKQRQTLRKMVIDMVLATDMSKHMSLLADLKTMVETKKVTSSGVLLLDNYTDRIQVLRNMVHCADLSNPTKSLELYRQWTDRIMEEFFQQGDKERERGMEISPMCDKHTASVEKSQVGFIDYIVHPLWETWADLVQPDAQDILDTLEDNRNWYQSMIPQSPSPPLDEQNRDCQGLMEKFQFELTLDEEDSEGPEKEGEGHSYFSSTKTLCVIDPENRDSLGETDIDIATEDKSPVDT

As for `CCOc1cc2c(cc1OC)C(c1ccc(C(=O)N3CCC(n4c(=O)c5sc(-c6ccccc6)cc5n(Cc5cnc(C)s5)c4=O)CC3)cc1)=N[C@@H]1CCSC[C@H]21` [Example 20, 3-[1-({4-[(4aR,10bR)-9-ethoxy-8-methoxy-3,4,4a,10b-tetrahydro-1H-thiopyrano[4,3-c]isoquinolin-6-yl]phenyl}carbonyl)piperidin-4-yl]-1-[(2-methyl-1,3-thiazol-5-yl)methyl]-6-phenylthieno[3,2-d]pyrimidine-2,4(1H,3H)-dione], the IC50 in assay [1] was 1 to 10 nM; in assay [2], under 10 nM.

As for `CCOc1cc2c(cc1OC)C(c1ccc(C(=O)N3CCC(n4c(=O)c5sc(-c6ccccc6)cc5n(Cc5nnn(CC)n5)c4=O)CC3)cc1)=N[C@@H]1CCS(=O)(=O)C[C@H]21` [Example 19, 3-[1-({4-[(4aR,10bR)-9-ethoxy-8-methoxy-2,2-dioxido-3,4,4a,10b-tetrahydro-1H-thiopyrano[4,3-c]isoquinolin-6-yl]phenyl}carbonyl)piperidin-4-yl]-1-[(2-ethyl-2H-tetrazol-5-yl)methyl]-6-phenylthieno[3,2-d]pyrimidine-2,4(1H,3H)-dione], the figures for the IC50 in assay [1] and in assay [2] were over 10 nM and under 10 nM, respectively.

Consider `CCOc1cc2c(cc1OC)C(c1cccc(C(=O)N3CCC(n4c(=O)c5sc(-c6ccccc6F)cc5n(Cc5nnn(CC)n5)c4=O)CC3)c1)=N[C@@H]1CCSC[C@H]21` [Example 39], for which the IC50 was 1 to 10 nM in assay [1] and under 10 nM in assay [2].

As to `CCOc1cc2c(cc1OC)C(c1ccc(C(=O)N3CCC(n4c(=O)c5sc(-c6ccccc6)cc5n(Cc5ncn(C)n5)c4=O)CC3)cc1)=N[C@@H]1CCSC[C@H]21` [Example 52, 3-[1-({4-[(4aR,10bR)-9-ethoxy-8-methoxy-3,4,4a,10b-tetrahydro-1H-thiopyrano[4,3-c]isoquinolin-6-yl]phenyl}carbonyl)piperidin-4-yl]-1-[(1-methyl-1H-1,2,4-triazol-3-yl)methyl]-6-phenylthieno[3,2-d]pyrimidine-2,4(1H,3H)-dione], the IC50 in assay [1] was under 1 nM; in assay [2], over 100 nM.

Turning to `CCOc1cc2c(cc1OC)C(c1cccc(C(=O)N3CCC(n4c(=O)c5sc(-c6ccc(F)cc6OC)cc5n(Cc5nnn(CC)n5)c4=O)CC3)c1)=N[C@@H]1CCSC[C@H]21` [Example 33, 3-[1-({3-[(4aR,10bR)-9-ethoxy-8-methoxy-3,4,4a,10b-tetrahydro-1H-thiopyrano[4,3-c]isoquinolin-6-yl]phenyl}carbonyl)piperidin-4-yl]-1-[(2-ethyl-2H-tetrazol-5-yl)methyl]-6-(4-fluoro-2-methoxyphenyl)thieno[3,2-d]pyrimidine-2,4(1H,3H)-dione], the IC50 was over 10 nM in assay [1] and 10 to 100 nM in assay [2].

In the case of `CCOc1cc2c(cc1OC)C(c1ccc(C(=O)N3CCC(n4c(=O)c5sc(-c6ccccc6)cc5n(Cc5coc(CC)n5)c4=O)CC3)cc1)=N[C@@H]1CCSC[C@H]21` [Example 16, 3-[1-({4-[(4aR,10bR)-9-ethoxy-8-methoxy-3,4,4a,10b-tetrahydro-1H-thiopyrano[4,3-c]isoquinolin-6-yl]phenyl}carbonyl)piperidin-4-yl]-1-[(2-ethyl-1,3-oxazol-4-yl)methyl]-6-phenylthieno[3,2-d]pyrimidine-2,4(1H,3H)-dione], the IC50 in assay [1] was 1 to 10 nM; in assay [2], over 100 nM.

For the molecule `CCOc1cc2c(cc1OC)C(c1cccc(C(=O)N3CCC(n4c(=O)c5sc(-c6cc(OC)ccc6OC)cc5n(Cc5nnn(CC)n5)c4=O)CC3)c1)=N[C@@H]1CCSC[C@H]21` [Example 37, 6-(2,5-dimethoxyphenyl)-3-[1-({3-[(4aR,10bR)-9-ethoxy-8-methoxy-3,4,4a,10b-tetrahydro-1H-thiopyrano[4,3-c]isoquinolin-6-yl]phenyl}carbonyl)piperidin-4-yl]-1-[(2-ethyl-2H-tetrazol-5-yl)methyl]thieno[3,2-d]pyrimidine-2,4(1H,3H)-dione], the IC50 in assay [1] is over 10 nM; in assay [2], under 10 nM.

`CCOc1cc2c(cc1OC)C(c1ccc(C(=O)N3CCC(n4c(=O)c5sc(-c6ccccc6)cc5n(Cc5nnc(CC)o5)c4=O)CC3)cc1)=N[C@@H]1CCSC[C@H]21` [Example 4, 3-[1-({4-[(4aR,10bR)-9-ethoxy-8-methoxy-3,4,4a,10b-tetrahydro-1H-thiopyrano[4,3-c]isoquinolin-6-yl]phenyl}carbonyl)piperidin-4-yl]-1-[(5-ethyl-1,3,4-oxadiazol-2-yl)methyl]-6-phenylthieno[3,2-d]pyrimidine-2,4(1H,3H)-dione]: the IC50 was under 1 nM in assay [1] and 10 to 100 nM in assay [2].

Take `CCOc1cc2c(cc1OC)C(c1ccc(C(=O)N3CCC(n4c(=O)c5sc(-c6cc(F)ccc6OC)cc5n(Cc5nnn(CC)n5)c4=O)CC3)cc1)=N[C@@H]1CCSC[C@H]21` [Example 34, 3-[1-({4-[(4aR,10bR)-9-ethoxy-8-methoxy-3,4,4a,10b-tetrahydro-1H-thiopyrano[4,3-c]isoquinolin-6-yl]phenyl}carbonyl)piperidin-4-yl]-1-[(2-ethyl-2H-tetrazol-5-yl)methyl]-6-(5-fluoro-2-methoxyphenyl)thieno[3,2-d]pyrimidine-2,4(1H,3H)-dione]: the IC50 in assay [1] was over 10 nM; in assay [2] it was 10 to 100 nM.

Turning to `CCOc1cc2c(cc1OC)C(c1ccc(C(=O)N3CCC(n4c(=O)c5sc(-c6ccccc6)cc5n(Cc5cc(CC)no5)c4=O)CC3)cc1)=N[C@@H]1CCSC[C@H]21` [Example 3, 3-[1-({4-[(4aR,10bR)-9-ethoxy-8-methoxy-3,4,4a,10b-tetrahydro-1H-thiopyrano[4,3-c]isoquinolin-6-yl]phenyl}carbonyl)piperidin-4-yl]-1-[(3-ethylisoxazol-5-yl)methyl]-6-phenylthieno[3,2-d]pyrimidine-2,4(1H,3H)-dione], the IC50 in assay [1] is 1 to 10 nM; in assay [2] it was under 10 nM.

As to `CCOc1cc2c(cc1OC)C(c1ccc(C(=O)N3CCC(n4c(=O)c5sc(-c6ccccc6)cc5n(Cc5ocnc5C)c4=O)CC3)cc1)=N[C@@H]1CCSC[C@H]21` [Example 54, 3-[1-({4-[(4aR,10bR)-9-ethoxy-8-methoxy-3,4,4a,10b-tetrahydro-1H-thiopyrano[4,3-c]isoquinolin-6-yl]phenyl}carbonyl)piperidin-4-yl]-1-[(4-methyl-1,3-oxazol-5-yl)methyl]-6-phenylthieno[3,2-d]pyrimidine-2,4(1H,3H)-dione], the values for the IC50 in assay [1] and in assay [2] were under 1 nM and over 100 nM, respectively.

With `CCOc1cc2c(cc1OC)C(c1ccc(C(=O)N3CCC(n4c(=O)c5sc(-c6cccc(F)c6F)cc5n(Cc5nnn(CC)n5)c4=O)CC3)cc1)=N[C@@H]1CCSC[C@H]21` [Example 42, 6-(2,3-difluorophenyl)-3-[1-({4-[(4aR,10bR)-9-ethoxy-8-methoxy-3,4,4a,10b-tetrahydro-1H-thiopyrano[4,3-c]isoquinolin-6-yl]phenyl}carbonyl)piperidin-4-yl]-1-[(2-ethyl-2H-tetrazol-5-yl)methyl]thieno[3,2-d]pyrimidine-2,4(1H,3H)-dione], the IC50 in assay [1] was over 10 nM; in assay [2], 10 to 100 nM.

Take `CCOc1cc2c(cc1OC)C(c1ccc(C(=O)N3CCC(n4c(=O)c5sc(-c6ccccc6)cc5n(Cc5ccn(CC)n5)c4=O)CC3)cc1)=N[C@@H]1CCSC[C@H]21` [Example 18, 3-[1-({4-[(4aR,10bR)-9-ethoxy-8-methoxy-3,4,4a,10b-tetrahydro-1H-thiopyrano[4,3-c]isoquinolin-6-yl]phenyl}carbonyl)piperidin-4-yl]-1-[(1-ethyl-1H-pyrazol-3-yl)methyl]-6-phenylthieno[3,2-d]pyrimidine-2,4(1H,3H)-dione]: the figures for the IC50 in assay [1] and in assay [2] were 1 to 10 nM and over 100 nM, respectively.

With `CCOc1cc2c(cc1OC)C(c1ccc(C(=O)N3CCC(n4c(=O)c5sc(-c6ccc7c(c6)OCO7)cc5n(Cc5nnn(CC)n5)c4=O)CC3)cc1)=N[C@@H]1CCSC[C@H]21` [Example 30, 6-(1,3-benzodioxol-5-yl)-3-[1-({4-[(4aR,10bR)-9-ethoxy-8-methoxy-3,4,4a,10b-tetrahydro-1H-thiopyrano[4,3-c]isoquinolin-6-yl]phenyl}carbonyl)piperidin-4-yl]-1-[(2-ethyl-2H-tetrazol-5-yl)methyl]thieno[3,2-d]pyrimidine-2,4(1H,3H)-dione], the IC50 in assay [1] is 1 to 10 nM; in assay [2] it was under 10 nM.

For the molecule `CCOc1cc2c(cc1OC)C(c1ccc(C(=O)N3CCC(n4c(=O)c5sc(-c6ccccc6)cc5n(Cc5noc(C)n5)c4=O)CC3)cc1)=N[C@@H]1CCSC[C@H]21` [Example 2, 3-[1-({4-[(4aR,10bR)-9-ethoxy-8-methoxy-3,4,4a,10b-tetrahydro-1H-thiopyrano[4,3-c]isoquinolin-6-yl]phenyl}carbonyl)piperidin-4-yl]-1-[(5-methyl-1,2,4-oxadiazol-3-yl)methyl]-6-phenylthieno[3,2-d]pyrimidine-2,4(1H,3H)-dione], the values for the IC50 in assay [1] and in assay [2] were 1 to 10 nM and under 10 nM, respectively.

For the molecule `CCOc1cc2c(cc1OC)C(c1ccc(C(=O)N3CCC(n4c(=O)c5sc(-c6ccc(F)c(F)c6)cc5n(Cc5nc(CC)no5)c4=O)CC3)cc1)=N[C@@H]1CCSC[C@H]21` [Example 49, 6-(3,4-difluorophenyl)-3-[1-({4-[(4aR,10bR)-9-ethoxy-8-methoxy-3,4,4a,10b-tetrahydro-1H-thiopyrano[4,3-c]isoquinolin-6-yl]phenyl}carbonyl)piperidin-4-yl]-1-[(3-ethyl-1,2,4-oxadiazol-5-yl)methyl]thieno[3,2-d]pyrimidine-2,4(1H,3H)-dione], the results for the IC50 in assay [1] and in assay [2] were 1 to 10 nM and under 10 nM, respectively.
